Data on 88 molecules can be found in a melting point compilation (Tetko et al.; mined from patent text by program, amines drawn as free bases though some values may be those of a salt).

`Oc1c(CCl)cc(Cl)cc1CCl` showed a melting point of 88 °C.

`CS(=O)(=O)c1ccc(-c2ccc(Cl)n2-c2ccc(F)cc2)cc1`: the melting point lay in the range of 180 to 182 °C.

Regarding `CCc1cc(OCc2ccc(-c3ccccc3-c3nnn(C(c4ccccc4)(c4ccccc4)c4ccccc4)n3)cc2)c2nc(OC)ccc2n1`, the melting point is 145 to 148 °C.

Molecule `Cc1cc(O)c(SCCC(C)C)c(=O)o1` yielded a melting point of 81 to 82 °C.

The molecule `C=Cc1cc(C(C)NC(=O)C#Cc2ccc(C(C)(C)C)cc2)cc(F)c1NS(C)(=O)=O` (stereo not drawn) returned a melting point of 108 to 110 °C.

`CCC(O)CNC(=O)c1ccc(C(F)(F)F)c(N)c1` (stereo not drawn) showed a melting point of 132 to 134 °C.

The molecule `CSc1c(CC(=O)O)ccc2c3ccccc3n(Cc3ccccc3)c12` returned a melting point of 182 to 183 °C.

As for `O=C1Nc2ccccc2Oc2ncccc21`, the melting point was in the range of 250 to 253 °C.

`O=C(O)CCCCCCCCCCCCCCC(=O)ON1C(=O)CCC1=O` registered a melting point of 118 to 121 °C.

`Clc1cccc(NNc2cccc(Cl)c2)c1` yielded a melting point of 116 °C.

The molecule `CC(C)NC(=O)N1CCc2[nH]cnc2C1c1cccnc1` (stereo not drawn) yielded a melting point of 237 °C.

`CCn1c(=S)c2[nH]c(C(C)C)nc2n(CC)c1=O` displayed a melting point of 168 to 170 °C.

With `C#CC1N(C(=O)Oc2ccccc2)c2ccc(OC)cc2C23OC12CCCC3=O` (stereo not drawn), the melting point fell in the range of 186 to 188 °C.

The molecule `COC(=O)c1ccc(N)c(S(C)(=O)=O)c1` displayed a melting point of 146 °C.

In turn, `COc1ncc(Cl)c(C)c1C(=O)O` came in with a melting point of 127 to 129 °C.

The molecule `Fc1ccc2[nH]cc(CC3CCN(CCOc4cccc5c4OCCO5)CC3)c2c1` gave a melting point of 157 to 159 °C.

On to `COc1ccc(N2CCN(c3c(C)c(C)c4c(c3C)C(O)(CCc3ccccc3)C(C)(C)O4)CC2)cc1` (stereo not drawn), for which the melting point lay in the range of 124 to 126 °C.

As to `O=C(O)c1cn(C2CC2)c2nc(N3CCCC(n4ccnn4)C3)c(F)cc2c1=O` (stereo not drawn), the melting point is 251 to 254 °C.

`CC(C)(C)[Si](C)(C)OC1CCCc2cnc3cc(O)ccc3c21` (stereo not drawn): the melting point is 248 to 250 °C.

`COc1ccc2c(c1OCCc1ccccc1)CC(C(=O)O)NC2` (racemic) registered a melting point of 232 to 235 °C.

Consider `Cc1noc(-c2cccc(NC(=O)Oc3ccc([N+](=O)[O-])cc3)c2)n1`, for which the melting point was 217 to 220 °C.

With `CNC1=C([N+](=O)[O-])C(=O)NC1=Cc1ccccc1`, the melting point turned out to be 238 °C.

Regarding `Cc1ccc(-c2ccc3c(c2)C=C(C(=O)Nc2ccc(CN4CCN(CCO)CC4)cc2)CC3)cc1`, the melting point lay within 185 to 187 °C.

In turn, `O=C(O)c1cccc(C(=O)c2ccc(Cl)cc2)c1` yielded a melting point of 228 °C.

For the molecule `CCC(=O)Nc1ccc(C(=O)NCCN(CC)CC)c(OC)c1`, the melting point is 137 °C.

Molecule `O=S(=O)(c1ccccc1)N(CCCN1CC=C(c2ccccc2)CC1)c1ccccc1` yielded a melting point of 112 °C.

Molecule `Cc1c(-c2ccccc2)sc2nc(NC3CCCCC3)[nH]c(=O)c12` registered a melting point of 265 to 270 °C.

In turn, `C#CCCOc1cc(C=O)ccc1OC` registered a melting point of 63 to 65 °C.

In the case of `Cc1ccc(C2(C=O)C3CC4CC(C3)CC2C4)cc1` (stereo not drawn), the melting point lay in the range of 93 to 97 °C.

Consider `C[Si](C)(C)c1ccc(NC(=O)CCCC=C(F)F)cc1`, for which the melting point was in the range of 50 to 51 °C.

As to `CN(C)C(=O)COc1ccc2c(-c3ccc(Br)cc3)nsc2c1`, the melting point turned out to be 159 °C.

In turn, `Cc1cccc(C)c1NC(=O)CN1CCN2C(C1)C(=O)N(C(C)C)C2(C)C` (stereo not drawn) returned a melting point of 155 °C.

Regarding `COc1cc(Cl)c(NS(C)(=O)=O)cc1C(=O)NCC1CCCO1` (stereo not drawn), the melting point was 159 to 160 °C.

The molecule `COc1cc(C(=O)N(C)C)ccc1OCCCN1CCC(c2noc3cc(F)ccc23)CC1` gave a melting point of 126 to 127 °C.

`C(#Cc1ccccc1)CCN1CCC(c2ccccc2)CC1` returned a melting point of 65 to 66 °C.

Turning to `CC(C)Nc1cccc(C2CN3CCSC3=N2)c1` (stereo not drawn), the melting point fell in the range of 47 to 51 °C.

`O=S(=O)(Cc1ccccc1Cl)c1nnc(C(F)(F)F)s1` came in with a melting point of 103 °C.

The molecule `Cc1ccc(S(=O)(=O)OCC2Cc3cccc(-c4cccc(C)c4)c3O2)cc1` (stereo not drawn) gave a melting point of 81 to 82 °C.

As to `N#CCCc1cc(N2C(=O)C3=C(CCCC3)C2=O)ccc1Cl`, the melting point was 87 to 97 °C.

Molecule `O=C(O)COc1ccc(C2=CC(=O)CC(c3ccccc3F)C2)c(Cl)c1Cl` (stereo not drawn) registered a melting point of 187 to 190 °C.

Consider `O=C(OCc1ccc([N+](=O)[O-])cc1)N1CCC(O)CC1`, for which the melting point lay in the range of 91.5 to 94 °C.

With `O=c1[nH]c2ccccc2c(=O)cc1NCCO`, the melting point is 207 °C.

For `COc1cc(C(=O)c2[nH]c3ccccc3c2C)cc([N+](=O)[O-])c1O`, the melting point was in the range of 195 to 197 °C.

`O=C1Nc2ccccc2N(C(=O)N2CCCC(CCN3CCCCCC3)C2)c2ncccc21` (stereo not drawn) had a melting point of 152 to 154 °C.

Molecule `Cc1cc(C)cc(NCc2ccc3nc(NCCCN4CCCCC4)n(Cc4nc(C)ccc4O)c3c2)c1` yielded a melting point of 161 °C.

In turn, `COc1cc(C(=O)N2CCN(C(=O)OC(C)(C)C)C(C=O)C2)cc(OC)c1OC` (stereo not drawn) returned a melting point of 160 to 161 °C.

For the molecule `O=c1c(Cc2ccncc2)c(-c2ccc(Cl)cc2)[nH]c2ccccc12`, the melting point lay in the range of 232 to 234 °C.

On to `COc1ccc(-c2cccc3c2C2(COc4cc5c(cc42)OCO5)C(=O)N3Cc2ccc(C(F)(F)F)o2)cn1` (stereo not drawn), for which the melting point is 174 to 176 °C.

In turn, `CCOC(=O)C1(NC=O)Cc2ccccc2NC1=O` (stereo not drawn) yielded a melting point of 187 to 190 °C.

`Cc1cc(C)cc(NC(=O)c2ccc([N+](=O)[O-])cc2)c1` showed a melting point of 206 to 210 °C.

In the case of `O=C1Cc2cc(NC(=O)C(=O)N3CCC(Oc4ccc(Cl)cc4)CC3)ccc2N1`, the melting point is 194 to 196 °C.

`CCCCc1cn(-c2ccccc2CC)c(=O)n1Cc1ccc(-c2ccccc2-c2nnn[nH]2)cc1` registered a melting point of 188 to 189 °C.

Molecule `COC(=O)CCSCCCCCCCCCCCCI` returned a melting point of 33 °C.

`CN(C)c1nccc2c1nnn2Cc1ccccc1F` came in with a melting point of 248 to 252 °C.

In turn, `CCCCOC(=O)c1nc(Cl)c2cc(OC(C)C)ccc2c1O` had a melting point of 60 to 62 °C.

`CN(C)C=Cc1nc2ccc(F)cc2c(=O)n1-c1ccccc1Cl`: the melting point was in the range of 210 to 211 °C.

Take `Cc1oc(-c2ccccc2)nc1C(O)COc1ccc(N)cc1` (stereo not drawn): the melting point lay in the range of 139 to 140 °C.

In turn, `C[C@@H](CCC(=O)N[C@@H](Cc1ccccc1)C(=O)CSCc1ccco1)CNC(=O)COc1ccccc1` had a melting point of 91 to 95 °C.

In turn, `O=C(NC(Cc1ccccc1)c1ccccn1)c1ccccc1` (stereo not drawn) had a melting point of 153 to 154 °C.

Consider `CC(C)(C)OC(=O)N1CCC(Oc2ccc(-c3cn[nH]c(=O)c3)cc2)CC1`, for which the melting point lay in the range of 222 to 223 °C.

In turn, `COC(=O)[C@@H]1CCCN1C(=O)CCC(=O)c1ccccc1` showed a melting point of 66 to 70 °C.

As for `O=c1c2c(Cl)cc(Cl)cc2n(Cc2ccccc2)c(=O)n1Cc1ccc(Cl)cc1`, the melting point was 161 to 165 °C.

Molecule `CCCC(=O)OC1CSC(Oc2cccnc2)C(OC(=O)CCC)C1OC(=O)CCC` (stereo not drawn) showed a melting point of 70 °C.

The molecule `COc1ccc([C@H](Cc2ccncc2)c2ccccc2)cc1O` came in with a melting point of 158 to 159 °C.

In the case of `O=C(O)CCNC(=O)CCCCC1CCSS1` (stereo not drawn), the melting point lay within 74 to 76 °C.

`Cc1cc(-n2ccnc2)c2cccc(OCc3c(Cl)ccc(S(=O)(=O)N4CCCC[C@H]4C(=O)O)c3Cl)c2n1` registered a melting point of 208 °C.

Turning to `CC(C)(C)c1cc(-c2nn(C3(C)COC(=O)O3)c3ncccc23)cc(C(C)(C)C)c1O` (stereo not drawn), the melting point was in the range of 190 to 191 °C.

Consider `CNC(=O)c1cccc(NC(=O)Cc2cccc3ccccc23)c1`, for which the melting point lay in the range of 201 to 202 °C.

`Nc1ncc(-c2ccc(=O)[nH]n2)c(-c2cccs2)n1` returned a melting point of 265 °C.

Take `CCCN(CCC)c1c(CC)nn2c(-c3ccc(OC)cc3C)cccc12`: the melting point lay within 76 to 79 °C.

The molecule `O=C(O)c1cc2nc3n(c2cc1Cl)CCC3` showed a melting point of more than 270 °C.

Molecule `CCCCCCCCNC(=O)ON=C(C1=CC(=O)C(C)(C2CCCCC2)O1)c1ccccc1` (stereo not drawn) yielded a melting point of 85 to 87 °C.

Take `Cc1cc(C)n(C(=O)CNS(=O)(=O)c2ccc(CC(C)C)cc2)n1`: the melting point was found to be 124 °C.

The molecule `O=C(O)c1ccc(-c2nc(-c3cccc(OC(F)(F)F)c3)cs2)cc1` yielded a melting point of 233 to 234 °C.

In turn, `CCOC(=O)c1[nH]cc(C)c1-c1ccccc1` returned a melting point of 62 to 64 °C.

With `CCOC(=O)c1c(C(C)(C)O)nc(SC)n1Cc1ccc(-c2ccccc2-c2nnnn2C(c2ccccc2)(c2ccccc2)c2ccccc2)cc1`, the melting point was in the range of 125 to 127 °C.

`Cc1cccc(C2=C(c3ccc(S(C)(=O)=O)cc3)CC(CN(C)C)C2O)c1` (stereo not drawn) yielded a melting point of 165 to 167 °C.

With `O=C(NC(c1ccccc1)c1ccccc1)NS(=O)(=O)Cl`, the melting point lay in the range of 80 to 88 °C.

`CC1=NCCN1Cc1ccc(CCNC(=O)c2ccc(-c3ccc(Cl)cc3)cc2)cc1` yielded a melting point of 170 to 172 °C.

Regarding `O=c1[nH]ccn1-c1ccc(F)cc1F`, the melting point fell in the range of 192 to 194 °C.

In turn, `c1ccc(-c2ccc(Nc3nccc(-c4ccc(-c5ccc(N(c6ccccc6)c6ccccc6)cc5)cc4)n3)cc2)cc1` yielded a melting point of more than 300 °C.

On to `COc1cccc(S(=O)(=O)c2ccc3c(c2)c(CCNC(=O)OC(C)(C)C)c(C)n3C)c1`, for which the melting point is 115 to 122 °C.

As to `O=C(O)c1ccc(Oc2nn(Cc3ccccc3)c3ccccc23)o1`, the melting point fell in the range of 162 to 165 °C.

Regarding `CN(C#N)C(=O)CCCCCCCCC(=O)N(C)C#N`, the melting point was in the range of 83.4 to 84 °C.

The molecule `COCc1cnc2c(NC(=O)c3c(Cl)cccc3Cl)ccc(C)c2c1Cl` came in with a melting point of 180 °C.

With `CC(C)(C)OC(=O)Cc1nn(Cc2nc3cc(C(F)(F)F)ccc3s2)c(=O)c2cccnc12`, the melting point lay in the range of 121 to 122 °C.

Take `CN1CCN(c2ccc(-c3cnc4c(c3)N(Cc3cc(Cl)ccc3C(F)(F)F)CCN4)cn2)CC1`: the melting point was 226 to 227 °C.

In turn, `O=C(c1sc2c(ccc(=O)n2-c2ccccc2)c1Br)N1CC(O)C1` registered a melting point of 199 °C.
